Source: patent US20140350081A1, “INSECT G-COUPLED RECEPTORS USEFUL AS TARGETS FOR INSECTICIDES AND COMPOUNDS AND REAGENTS IDENTIFIED USING THE SAME” (priority 2011, published 2014)
Read-outs that look alike come from different tables or passages of the source. Each block holds one compound with its values, some of them ahead of it.

Experiments:
[1] = system: Ae. aegypti L3 larvae; experiment: whole plant or invertebrate; details: Aedes aegypti
[2] = target: T1, AaDOP2 (Aedes aegypti, UniProt H6D5H2); experiment: HTRF cAMP accumulation concentration response assay (Cisbio Dynamic 2); assay type: cell-based
T1 sequence (H6D5H2 entry or part of it): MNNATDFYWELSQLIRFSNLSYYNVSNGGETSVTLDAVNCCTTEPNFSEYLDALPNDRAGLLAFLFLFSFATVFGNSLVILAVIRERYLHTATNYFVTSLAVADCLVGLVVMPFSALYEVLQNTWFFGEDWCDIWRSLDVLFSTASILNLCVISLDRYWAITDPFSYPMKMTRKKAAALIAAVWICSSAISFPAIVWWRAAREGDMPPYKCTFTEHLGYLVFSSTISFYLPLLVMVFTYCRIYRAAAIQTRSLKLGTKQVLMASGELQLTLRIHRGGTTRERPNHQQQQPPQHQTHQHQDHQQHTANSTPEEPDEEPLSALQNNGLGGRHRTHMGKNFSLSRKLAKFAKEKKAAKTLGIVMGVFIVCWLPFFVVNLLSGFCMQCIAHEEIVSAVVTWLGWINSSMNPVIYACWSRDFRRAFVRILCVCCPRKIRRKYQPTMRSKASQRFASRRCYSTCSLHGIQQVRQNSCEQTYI

[3] = target: T1, AaDOP2; experiment: LOPAC1280 antagonist screen in HEK-CRELuc-Aadop2 cells; assay type: cell-based
[4] = target: Isdop2 (Ixodes scapularis, UniProt A0ACM8DGL0); experiment: cell-based; details: for inhibition at 10 µM: read-out: % Inhibition (of response to dopamine), Isdop2 screen
Sequence of Isdop2 (A0ACM8DGL0 entry or part of it): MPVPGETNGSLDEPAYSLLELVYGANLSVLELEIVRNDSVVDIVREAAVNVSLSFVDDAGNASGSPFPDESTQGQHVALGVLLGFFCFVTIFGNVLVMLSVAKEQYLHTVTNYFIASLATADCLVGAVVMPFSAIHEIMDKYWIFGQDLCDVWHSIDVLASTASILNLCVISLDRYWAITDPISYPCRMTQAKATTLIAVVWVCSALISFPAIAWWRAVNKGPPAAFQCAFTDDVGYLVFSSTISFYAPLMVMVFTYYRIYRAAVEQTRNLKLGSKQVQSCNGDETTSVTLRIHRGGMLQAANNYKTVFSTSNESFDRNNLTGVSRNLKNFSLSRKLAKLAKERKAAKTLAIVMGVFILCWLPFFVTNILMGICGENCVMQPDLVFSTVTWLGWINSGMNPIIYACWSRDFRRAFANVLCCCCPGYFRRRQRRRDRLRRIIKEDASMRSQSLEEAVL

[5] = target: T1, AaDOP2; experiment: AaDOP2 agonist screen against the LOPAC1280 library; assay type: cell-based
[6] = system: Ae. aegypti L3 larvae; details: 400 μM, three independent experiments
[7] = 24 h, read-out: Toxicity to Aedes aegypti larvae (mortality) 24 hours
[8] = 48 h, read-out: Toxicity to Aedes aegypti larvae (mortality) 48 hours
[9] = 72 h, read-out: Toxicity to Aedes aegypti larvae (mortality) 72 hours
[10] = 10 μM compound, percent of response to 1 μM dihydrexidine

SMILES: CNCCC=C1c2ccccc2CCc2ccccc21 [Nortriptyline, 3-(10,11-dihydro-5H-dibenzo[a,d]cyclohepten-5-ylidene)-N-methyl-1-propanamine]
mortality at 400 µM [1, 7]: 43%
mortality at 400 µM [1, 8]: 63%
mortality at 400 µM [1, 9]: 73%
IC50 ([2]; IC50 ± S.E.M. (nM), HTRF cAMP assay): 140 ± 50 nM
% of the SCH23390 effect ([3]; 10 μM compound, 300 nM dopamine, quadruplicate): 96%
% inhibition of DA activity (Aedes cell-based assay screen) ([3]; LOPAC1280 screen hits): 96%
inhibition at 10 µM [4]: 79%

% of DHX [5, 10]: 36%
SMILES: CCNC(=O)[C@H]1O[C@@H](n2cnc3c(NCc4ccccc4)ncnc32)[C@@H](O)C1O (stereo partly shown) [N6-Benzyl-NECA]

SMILES: CCCN(CCC)CCc1ccc(O)c(O)c1 [Dipropyldopamine]
% of DHX [5, 10]: 38%

SMILES: CNCCc1ccc(O)c(O)c1 [N-Methyldopamine]
% of DHX [5, 10]: 107%

SMILES: CNCCCC1c2ccccc2C=Cc2ccccc21 [Protriptyline, 3-(5H-dibenzo[a,d][7]annulen-5-yl)-N-methylpropan-1-amine]
mortality at 400 µM [1, 7]: 37%
mortality at 400 µM [1, 8]: 43%
mortality at 400 µM [1, 9]: 53%
IC50 ([2]; read-out: IC50 ± S.E.M. (nM), HTRF cAMP assay): 600 ± 250 nM
% inhibition of DA activity (Aedes cell-based assay screen) [3]: 82%
% of the SCH23390 effect [3]: 82%
inhibition at 10 µM [4]: 75%

SMILES: CN(C)CCCN1c2ccccc2CCc2ccc(Cl)cc21 [Clomipramine]
mortality at 400 µM ([1]; 24 h, read-out: Toxicity to Aedes aegypti larvae (mortality) 24 hours, 400 μM, L3 larvae, three independent experiments): 70 to 100%
mortality at 400 µM ([1]; 48 h, read-out: Toxicity to Aedes aegypti larvae (mortality) 48 hours, 400 μM, L3 larvae, three independent experiments): 93%
mortality at 400 µM ([1]; 72 h, read-out: Toxicity to Aedes aegypti larvae (mortality) 72 hours, 400 μM, L3 larvae, three independent experiments): 93%
inhibition at 10 µM [4]: 84%
Toxicity to Aedes aegypti larvae (mortality) 24 hours [6]: 70%

SMILES: Br.Cc1cccc(C2CN(C)CCc3c2cc(O)c(O)c3Cl)c1 (stereo not shown) [SKF 83959]
% of DHX [5, 10]: 30%
% Inhibition (of response to dopamine), Isdop2 screen [4]: 87%

SMILES: C=CCN1CCc2cccc3c2[C@H]1Cc1ccc(O)c(O)c1-3 [R(−)-N-Allyl-NPA]
% of DHX [5, 10]: 56%

SMILES: C[C@H]1C[C@H]2[C@@H]3CCC4=CC(=O)C=C[C@]4(C)[C@@]3(F)[C@@H](O)C[C@]2(C)[C@@]1(O)C(=O)CO [Betamethasone]
% of DHX [5, 10]: 101%

% of DHX [5, 10]: 34%
SMILES: C=C[C@@]1(C)CC(=O)[C@]2(O)[C@@]3(C)[C@@H](O)CCC(C)(C)[C@@H]3[C@H](O)[C@H](OC(C)=O)[C@@]2(C)O1 [Forskolin]

SMILES: CNC[C@H](O)c1ccc(O)c(O)c1 (racemic) [(±)-Epinephrine]
% of DHX [5]: 81%

% of DHX [5, 10]: 34%
SMILES: Nc1ncnc2c1ncn2[C@@H]1O[C@H](C(=O)NC2CC2)[C@@H](O)[C@H]1O [CPCA]

% of DHX [5, 10]: 31%
SMILES: Oc1ccc(C2CNCCc3c2cc(O)c(O)c3Cl)cc1 (stereo not shown) [Fenoldopam]

SMILES: NC1CCc2cc(O)c(O)cc2C1 (stereo not shown) [6,7-ADTN]
% of DHX [5, 10]: 131%
